Reference: the supplement of paper PMC13380429

Tests used:
[1] = system: Vero E6; assay: drug sensitivity score (DSS) for viability; higher = more toxic; extreme values may be limits of the assay; settings: 72 h
[2] = system: Caco-2; assay: as above; settings: 72 h
[3] = system: U2OS; assay: as above; settings: 72 h
[4] = system: HepG2; assay: as above; settings: 72 h
[5] = system: Calu-3; assay: as above; settings: 72 h
[6] = system: Vero E6; assay: cell viability relative to DMSO; higher = less toxic; settings: 72 h
[7] = system: Caco-2; assay: as above; settings: 72 h
[8] = system: U2OS; assay: as above; settings: 72 h
[9] = system: HepG2; assay: as above; settings: 72 h
[10] = system: Calu-3; assay: as above; settings: 72 h
[11] = system: A549-ACE2 infected with SARS-CoV-2; assay: morphology score (similarity to uninfected cells); higher = more like uninfected cells; settings: 24 h
[12] = system: A549-ACE2; assay: drug-induced phospholipidosis relative to tamoxifen; higher = more phospholipidosis
[13] = system: Caco-2; assay: relative viability EC50 (midpoint between 100% and the lowest measured viability); higher = less toxic; settings: 72 h
[14] = system: HepG2; assay: as above; settings: 72 h
[15] = system: Calu-3; assay: as above; settings: 72 h
[16] = system: A549-ACE2; assay: phospholipidosis EC50; higher = less potent phospholipidosis inducer
[17] = system: A549-ACE2 infected with SARS-CoV-2; assay: cell count relative to DMSO; higher = less toxic; settings: 24 h
[18] = system: A549-ACE2 infected with SARS-CoV-2; assay: SARS-CoV-2 infection rate relative to DMSO; higher = more infection; settings: 24 h
[19] = system: U2OS; assay: relative viability EC50 (midpoint between 100% and the lowest measured viability); higher = less toxic; settings: 72 h

CN(C)CCOc1ccc(/C(=C(/CCCl)c2ccccc2)c2ccccc2)cc1 [toremifene]
Settings | drug sensitivity score | relative viability EC50 [µM]
[1] | 3.2 | –
[2] | 4.6 | –
[3] | 2.8 | –
[4] | 3.6 | –
[5] | 5.7 | –
[13] | – | 2.13
[14] | – | 3.4
[15] | – | 2.5

Settings | SARS-CoV-2 infection rate [%] | cell count [%] | cell viability [%] | morphology score | phospholipidosis EC50 [µM]
[6], 1 nM | – | – | 98.4 | – | –
[6], 10 nM | – | – | 101 | – | –
[6], 100 nM | – | – | 90.4 | – | –
[6], 1000 nM | – | – | 95.3 | – | –
[6], 10000 nM | – | – | 53.6 | – | –
[7], 1 nM | – | – | 100 | – | –
[7], 10 nM | – | – | 98.1 | – | –
[7], 100 nM | – | – | 105 | – | –
[7], 1000 nM | – | – | 92.3 | – | –
[7], 10000 nM | – | – | 39.8 | – | –
[8], 1 nM | – | – | 97.6 | – | –
[8], 10 nM | – | – | 94.9 | – | –
[8], 100 nM | – | – | 99.4 | – | –
[8], 1000 nM | – | – | 91.3 | – | –
[8], 10000 nM | – | – | 66.7 | – | –
[9], 1 nM | – | – | 105 | – | –
[9], 10 nM | – | – | 82.5 | – | –
[9], 100 nM | – | – | 104 | – | –
[9], 1000 nM | – | – | 103 | – | –
[9], 10000 nM | – | – | 29.9 | – | –
[10], 1 nM | – | – | 90.6 | – | –
[10], 10 nM | – | – | 106 | – | –
[10], 100 nM | – | – | 104 | – | –
[10], 1000 nM | – | – | 93.1 | – | –
[10], 10000 nM | – | – | 15.8 | – | –
[11], 0.1 µM | – | – | – | -0.1 | –
[11], 0.3 µM | – | – | – | 0.28 | –
[11], 1 µM | – | – | – | 0.36 | –
[11], 3 µM | – | – | – | 0.76 | –
[16], 24 h | – | – | – | – | 15
[16], 48 h | – | – | – | – | 1.48
[16], 72 h | – | – | – | – | 1.65
[17], 0.1 µM | – | 100 | – | – | –
[17], 0.3 µM | – | 107 | – | – | –
[17], 1 µM | – | 107 | – | – | –
[17], 3 µM | – | 127 | – | – | –
[18], 0.1 µM | 105 | – | – | – | –
[18], 0.3 µM | 88 | – | – | – | –
[18], 1 µM | 89 | – | – | – | –
[18], 3 µM | 44 | – | – | – | –

drug-induced phospholipidosis [%], [12]
Settings | 0.3 µM | 0.833333 µM | 3.33333 µM | 6.66667 µM | 10 µM | 30 µM
24 h | 8.6 | 44.5 | 103 | 115 | 116 | 416
48 h | 7.64 | 34.2 | 102 | 117 | 121 | –
72 h | 6.92 | 27.5 | 102 | 112 | 125 | –

N=C(NCCCCCCNC(=N)NC(=N)Nc1ccc(Cl)cc1)NC(=N)Nc1ccc(Cl)cc1 [chlorhexidine]
Settings | drug sensitivity score | relative viability EC50 [µM]
[1] | 3 | –
[2] | 4.6 | –
[3] | 3.7 | –
[4] | 6.5 | –
[13] | – | 3.19
[14] | – | 2.32
[19] | – | 3.19

Settings | SARS-CoV-2 infection rate [%] | cell count [%] | cell viability [%] | morphology score | phospholipidosis EC50 [µM]
[6], 1 nM | – | – | 96.5 | – | –
[6], 10 nM | – | – | 99 | – | –
[6], 100 nM | – | – | 97.9 | – | –
[6], 1000 nM | – | – | 95.2 | – | –
[6], 10000 nM | – | – | 56.1 | – | –
[7], 1 nM | – | – | 99.3 | – | –
[7], 10 nM | – | – | 90 | – | –
[7], 100 nM | – | – | 98.1 | – | –
[7], 1000 nM | – | – | 100 | – | –
[7], 10000 nM | – | – | 16.4 | – | –
[8], 1 nM | – | – | 99.9 | – | –
[8], 10 nM | – | – | 101 | – | –
[8], 100 nM | – | – | 95.9 | – | –
[8], 1000 nM | – | – | 100 | – | –
[8], 10000 nM | – | – | 32.2 | – | –
[9], 1 nM | – | – | 101 | – | –
[9], 10 nM | – | – | 103 | – | –
[9], 100 nM | – | – | 87 | – | –
[9], 1000 nM | – | – | 90.9 | – | –
[9], 10000 nM | – | – | 10.1 | – | –
[11], 0.1 µM | – | – | – | -0.01 | –
[11], 0.3 µM | – | – | – | 0.17 | –
[11], 1 µM | – | – | – | 0.17 | –
[11], 3 µM | – | – | – | -0.05 | –
[16], 24 h | – | – | – | – | 9.72
[16], 48 h | – | – | – | – | 7.36
[17], 0.1 µM | – | 103 | – | – | –
[17], 0.3 µM | – | 99 | – | – | –
[17], 1 µM | – | 107 | – | – | –
[17], 3 µM | – | 106 | – | – | –
[18], 0.1 µM | 95 | – | – | – | –
[18], 0.3 µM | 90 | – | – | – | –
[18], 1 µM | 91 | – | – | – | –
[18], 3 µM | 93 | – | – | – | –

drug-induced phospholipidosis [%], [12]
Settings | 0.3 µM | 0.833333 µM | 3.33333 µM | 6.66667 µM | 10 µM | 30 µM
24 h | -0.01 | -1.75 | 7.04 | 31.6 | 58.6 | 105
48 h | 3.12 | 2.84 | 15.7 | 40.3 | 57.2 | –
72 h | 3.95 | 2.67 | 18.9 | 39.3 | 61.2 | –
